Like-named read-outs stand apart in the source and are kept apart here.
Key:
human CB1 receptor = molecular target: T1, human CB1 receptor (Homo sapiens, UniProt P21554); experiment: biochemical; format: binding
T1 construct: expressed in transfected cells; host or cells: SK-N-MC cells, stably transfected with pcDNA3 CB-1 (human); semi-purified membrane pellet
Summary of the method: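 Membranes from SK-N-MC cells stably expressing human CB1, incubated 90 minutes at 30° C in Tris-HCl buffer with MgCl2, EDTA and fatty acid free BSA, pH 7.5. Bound counts collected by filtration and scintillation counting; IC50 from linear regression over varying compound concentrations.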

human CB2 receptor [1] = molecular target: T2, human CB2 receptor (Homo sapiens, UniProt P34972); experiment: Binding assay, cannabinoid CB2 receptor ([3H]-CP-55,940 displacement); settings: Cannabinoid CB2 Receptor Binding IC50, human CB2 receptor, SK-N-MC cell membranes, radioligand CP-55,940 0.2 nM
Summary of the method: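 Membranes from SK-N-MC cells stably expressing human CB2, incubated with test compound and 0.2 nM [3H]-CP-55,940 for 90 min at 30 °C in Tris buffer pH 7.5 with fatty-acid-free BSA. Nonspecific binding defined with 10 uM WIN 55,212; filtration and scintillation counting, IC50 by linear regression.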

human CB2 receptor [2] = molecular target: T2, human CB2 receptor; experiment: Functional cell-based assay, CB2 receptor mediated change in CRE β-gal expression (agonist / inverse agonist); settings: SK-N-MC cells, forskolin
Source text: Functional Cell-Based Assay for CB1 or CB2 Agonist and Inverse Agonist Effects on Intra-Cellular Adenylate Cyclase Activity
The CB1 and CB2 receptors are G-protein coupled receptors (GPCR) which influence cell function via the Gi-protein. These receptors modulate the activity of intracellular adenylate cyclase which in turn produces the intracellular signal messenger cyclic-AMP (cAMP).
At baseline, or during non-ligand bound conditions, these receptors are constitutively active and tonically suppress adenylate cyclase activity. The binding of an agonists causes further receptor activation and produces additional suppression of adenylate cyclase activity. The binding of an inverse agonist inhibits the constitutive activity of the receptors and results in an increase in adenylate cyclase activity.
By monitoring intracellular adenylate cyclase activity, the ability of compounds to act as agonists or inverse agonists can be determined.
Test compounds were evaluated in SK-N-MC cells which, using standard transfection procedures, were stably transfected with human cDNA for pcDNA3-CRE β-gal and pcDNA3 CB1 receptor (human) or pcDNA3 CB2 receptor (human). By expressing CRE β-gal, the cells produced β-galactosidase in response to CRE promoter activation by cAMP. Cells expressing CRE β-gal and either the human CB1 or CB2 receptor will produce less β-galactosidase when treated with a CB1/CB2 agonist and will produce more β-galactosidase when treated with a CB1/CB2 inverse agonist.
The cells were grown in 96-well plates under standard cell culture conditions at 37° C. in a 5% CO2 atmosphere. After 3 days, the media was removed and a test compound in media (wherein the media was supplemented with 2 mM L-glutamine, […] sodium pyruvate, 0.1% low fatty acid FBS (fetal bovine serum) and antibiotics) was added to the cell. The plates were incubated for 30 minutes at 37° C. and the plate cells were then treated with forskolin over a 4-6 hour period, then washed and lysed. The β-galactosidase activity was quantitated using commercially available kit reagents (Promega Corp. Madison, Wis.) and a VMAX Plate Reader (Molecular Devices, Inc).
For cells expressing CRE β-gal and the CB2 receptor, CB2 agonists reduced β-galactosidase activity in a dose-dependent manner and CB2 inverse agonists increased β-galactosidase activity in a dose-dependent manner.
The change in β-galactosidase activity was determined by setting a vehicle treated cell's activity value at 100% and expressing the β-galactosidase activity measured in a corresponding compound treated cell as a percent of the vehicle treated cell activity.
The EC50 values for compounds tested were calculated by linear regression and were obtained from studies in which varying compound concentrations were used.

[3] = inverse agonist, read-out: CB2 Receptor Functional Inverse Agonist EC50
[4] = agonist, read-out: CB2 Receptor Functional Agonist EC50

T2 sequence (P34972 whole entry): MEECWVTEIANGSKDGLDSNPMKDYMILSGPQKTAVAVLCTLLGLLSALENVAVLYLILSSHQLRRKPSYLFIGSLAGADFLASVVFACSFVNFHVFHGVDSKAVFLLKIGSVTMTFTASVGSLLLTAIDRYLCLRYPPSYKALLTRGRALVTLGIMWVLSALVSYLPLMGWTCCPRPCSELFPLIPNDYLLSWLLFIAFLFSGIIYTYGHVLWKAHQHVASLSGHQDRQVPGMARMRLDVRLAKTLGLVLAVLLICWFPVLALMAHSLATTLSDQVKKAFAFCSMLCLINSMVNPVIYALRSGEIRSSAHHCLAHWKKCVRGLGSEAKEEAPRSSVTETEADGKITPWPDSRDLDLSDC
T1 sequence (P21554 whole entry): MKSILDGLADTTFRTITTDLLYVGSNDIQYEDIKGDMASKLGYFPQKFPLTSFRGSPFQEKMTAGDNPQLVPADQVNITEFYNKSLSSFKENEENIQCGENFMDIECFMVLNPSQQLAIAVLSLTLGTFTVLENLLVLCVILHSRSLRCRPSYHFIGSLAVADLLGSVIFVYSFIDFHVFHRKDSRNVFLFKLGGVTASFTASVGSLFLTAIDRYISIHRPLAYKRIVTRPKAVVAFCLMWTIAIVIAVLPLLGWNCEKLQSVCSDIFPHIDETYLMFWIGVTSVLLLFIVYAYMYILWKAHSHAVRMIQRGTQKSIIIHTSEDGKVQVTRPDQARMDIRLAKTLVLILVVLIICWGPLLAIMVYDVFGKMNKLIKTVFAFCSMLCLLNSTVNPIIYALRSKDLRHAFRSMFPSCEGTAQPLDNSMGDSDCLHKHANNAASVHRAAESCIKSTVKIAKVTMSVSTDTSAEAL

Structure (SMILES)	IC50 (human CB1 receptor) [nM]	IC50 (human CB2 receptor [1]) [nM]	EC50 (human CB2 receptor [2]; [3]) [nM]	EC50 (human CB2 receptor [2]; [4]) [nM]
CCOC(=O)[C@H]1CCc2c(c(C(=O)NC3C4CC5CC(C4)CC3C5)nn2C2CCCCC2)C1 (stereo partly drawn) [Cpd 208, (5S)-3-(adamantan-2-ylcarbamoyl)-1-cyclohexyl-4,5,6,7-tetrahydro-1H-indazole-5-carboxylic acid ethyl ester]	660	14	8.6	–
CCOC(=O)[C@@H]1CCc2c(c(C(=O)NC3C4CC5CC(C4)CC3C5)nn2C2CCCCC2)C1 (stereo partly drawn) [Cpd 209, (5R)-3-(adamantan-2-ylcarbamoyl)-1-cyclohexyl-4,5,6,7-tetrahydro-1H-indazole-5-carboxylic acid ethyl ester]	260	200	74	–
CC12CCC(C1)C(C)(C)C2NC(=O)c1nn(-c2ccccc2)c2c1CCCC2 (centres unmarked) [compound 1]	377	13.5	–	15
COC(=O)C(Cc1cccc(OCc2ccccc2)c1)NC(=O)c1nn(-c2ccc(OC)cc2)c2c1CCCC2 (centres unmarked) [compound 3]	–	428	190	–
CC12CCC(C1)C(C)(C)C2NC(=O)c1nn(-c2ccc(F)cc2)c2c1CCCC2 (centres unmarked) [compound 10]	45	6	–	1.9
CC1CCCc2c(C(=O)NC3C4(C)CCC(C4)C3(C)C)nn(-c3ccc(F)cc3)c21 (centres unmarked) [compound 13]	108	6.5	–	4.1
CC12CCC(C1)C(C)(C)C2NC(=O)c1nn(-c2cccc(F)c2)c2c1CCCC2 (centres unmarked) [compound 18]	91.8	3.6	–	2.7
CC(NC(=O)c1nn(C2CCCCC2)c2c1CCCC2)C12CC3CC(CC(C3)C1)C2 (centres unmarked) [compound 26]	723	15	–	11
O=C(NCC12CC3CC(CC(C3)C1)C2)c1nn(C2CCCCC2)c2c1CCCC2 [compound 32]	20	6.9	–	47
O=C(NN1CCCCCC1)c1nn(-c2ccc(F)cc2)c2c1CCCC2 [compound 35]	700	94	–	35
CCOC(=O)[C@@H]1CCCC[C@@H]1NC(=O)c1nn(C2CCCCC2)c2c1CCCC2 [compound 36]	105	12.8	–	5
O=C(NN1CCCCCC1)c1nn(C2CCCCC2)c2c1CCCC2 [compound 37]	69.3	112	–	10
O=C(NC1C2CCC(C2)C1CO)c1nn(C2CCCCC2)c2c1CCCC2 (centres unmarked) [compound 40]	1440	215	–	31
O=C(NC12CC3CC(CC(C3)C1)C2)c1nn(C2CCCCC2)c2c1CCCC2 [compound 44]	79	2.4	–	29
O=C(NC1C2CC3CC(C2)CC1C3)c1nn(C2CCCCC2)c2c1CCCC2Cl (centres unmarked) [compound 62]	280	5	–	0.57
COC(=O)C(Cc1ccc(O)cc1)NC(=O)c1nn(Cc2ccccc2)c2c1CCCC2 (centres unmarked) [compound 75]	23.7	0.7	–	0.1
O=C(NC1C2CC3CC(C2)CC1C3)c1nn(C2CCCCC2)c2c1CC(NC(=O)C(F)(F)F)CC2 (centres unmarked) [compound 87]	855	26.6	–	250
CC(=O)OC1CCc2c(c(C(=O)NC3C4(C)CCC(C4)C3(C)C)nn2C2CCCCC2)C1 (centres unmarked) [compound 94]	1780	20	–	25
CCOC(=O)C1CCc2c(c(C(=O)NC(C)C34CC5CC(CC(C5)C3)C4)nn2-c2ccccc2)C1 (centres unmarked) [compound 116]	–	990	500	–
O=C(NC1C2CC3CC(C2)CC1C3)c1nn(CC2CCCCC2)c2c1CCCC2 (centres unmarked) [compound 122]	4	1.5	–	37
CC(NC(=O)c1nn(CC2CCCCC2)c2c1CCCC2)C12CC3CC(CC(C3)C1)C2 (centres unmarked) [compound 123]	7.5	4.6	–	7.5
CCOC(=O)C1CCc2c(c(C(=O)NC3C4(C)CCC(C4)C3(C)C)nn2Cc2ccccc2)C1 (centres unmarked) [compound 149]	67	8	7.9	–

Structure (SMILES)	IC50 (human CB1 receptor) [nM]	IC50 (human CB2 receptor [1]) [nM]	EC50 (human CB2 receptor [2]; [3]) [nM]	EC50 (human CB2 receptor [2]; [4]) [nM]
CCOC(=O)[C@H]1C2CCC(C2)[C@H]1NC(=O)c1nn(-c2ccc(F)cc2)c2c1CCCC2CCc1ccccc1 (some centres unmarked) [compound 154]	60	370	–	9
CCOC(=O)C1CCc2c(C(=O)NCC34CC5CC(CC(C5)C3)C4)nn(Cc3ccccc3)c2C1 (centres unmarked) [compound 156]	97	2	35	–
CCOC(=O)C1CCc2c(C(=O)NC34CC5CC(CC3C5)C4)nn(Cc3ccccc3)c2C1 (centres unmarked) [compound 157]	30	2	1.5	–
CC(NC(=O)c1nn(C2CCCCC2)c2c1CCCC2)C1CCCCC1 (centres unmarked) [compound 184]	50	20	–	100
C[C@@H](NC(=O)c1nn(C2CCCCC2)c2c1CCCC2)C1CCCCC1 [compound 195]	100	20	–	5.5
CC12CCC(C1)C(C)(C)[C@H]2NC(=O)c1nn(C2CCCCC2)c2c1CCCC2 (some centres unmarked) [compound 207]	82.4	1.6	–	10
CCOC(=O)[C@@H]1CCc2c(c(C(=O)NC3C4CC5CC(C4)CC3C5)nn2Cc2ccccc2)C1 (some centres unmarked) [compound 211]	5	0.7	16	–
C[C@@H](NC(=O)c1nn(C2CCCCC2)c2c1CCCC2)C12CC3CC(CC(C3)C1)C2 [compound 212]	260	74	–	3.7
CCOC(=O)[C@@H]1CCc2c(c(C(=O)NC(C)C34CC5CC(CC(C5)C3)C4)nn2C2CCCCC2)C1 (some centres unmarked) [compound 214]	1230	15.3	120	–
CCOC(=O)[C@H]1CCc2c(c(C(=O)NC(C)C34CC5CC(CC(C5)C3)C4)nn2C2CCCCC2)C1 (some centres unmarked) [compound 215]	–	200	220	–
CC12CCC(C1)C(C)(C)[C@@H]2NC(=O)c1nn(Cc2ccccc2)c2c1CCCC2 (some centres unmarked) [compound 217]	2.6	0.1	–	0.052
COC(=O)[C@H]1CCc2c(c(C(=O)NC3C4CC5CC(C4)CC3C5)nn2C2CCCCC2)C1 (some centres unmarked) [compound 218]	400	3	6	–
COC(=O)C1CCc2c(c(C(=O)NC3C4CC5CC(C4)CC3C5)nn2C2CCCCC2)C1 (centres unmarked) [compound 231]	638	–	35	–
CCOC(=O)C1CCc2c(c(C(=O)N[C@H](C)C3CCCCC3)nn2C2CCCCC2)C1 (some centres unmarked) [compound 251]	–	2.8	23	–
CC(NC(=O)c1nn(-c2ccc(Cl)cc2Cl)c2c1CCCC2)C12CC3CC(CC(C3)C1)C2 (centres unmarked) [compound 283]	100	100	–	–
CCOC(=O)C1CCCc2c1c(C(=O)N[C@H](C)C1CCCCC1)nn2C1CCCCC1 (some centres unmarked) [compound 285]	2900	2400	–	–
O=C(NN1CCCCC1)c1nn(-c2ccc(Cl)cc2Cl)c2c1CCCC2 [compound 287]	2500	2100	–	–
CCOC(=O)C1CCc2c(c(C(=O)N[C@H](C)C3CCCCC3)nn2Cc2ccccc2)C1 (some centres unmarked) [compound 289]	880	400	–	–
CCOC(=O)C1CC=CCC1NC(=O)c1nn(C2CCCCC2)c2c1CCCC2 (centres unmarked) [compound 301]	24	33	–	–
CC(C)N(C(=O)c1nn(C2CCCCC2)c2c1CCCC2)[C@H](C)C1CCCCC1 [compound 329]	1700	20	–	–
CC(CC1CCCCC1)NC(=O)c1nn(C2CCCCC2)c2c1CCCC2 (centres unmarked) [compound 330]	1900	30	–	–
CC(NC(=O)Nc1nn(C2CCCCC2)c2c1CCCC2)C1CCCCC1 (centres unmarked) [compound 334]	12500	980	–	–

Source: patent US7452997B2 (priority 2004, dated 2008)
